Laboratory results taken from US8435980B2 (AbbVie Inc., priority 2009, dated 2013).

Biological target: T1, Cdc7 (BEV coexpressed huCDC7/DBF4) (Homo sapiens, UniProt O00311)
T1 construct: made in house; host or cells: BEV (baculovirus expression vector) co-expression; insect cells are implied but no cell line is named
Assay: Cdc7 enzyme inhibition assay ([33P]ATP, biotinylated peptide substrate, FlashPlate)
Format: biochemical
Conditions: Table 3; enzyme inhibition data (Ki)
Procedure: Cdc7 (BEV coexpressed huCDC7/DBF4) is prepared internally. Cdc7 assays are conducted as follows with final concentrations as listed. […] Reactions are quenched after 1 hr by the addition of 90 μL stop buffer (50 mM EDTA, 2M NaCl). […] (Ki) for exemplary compounds.

T1 sequence (O00311 whole entry): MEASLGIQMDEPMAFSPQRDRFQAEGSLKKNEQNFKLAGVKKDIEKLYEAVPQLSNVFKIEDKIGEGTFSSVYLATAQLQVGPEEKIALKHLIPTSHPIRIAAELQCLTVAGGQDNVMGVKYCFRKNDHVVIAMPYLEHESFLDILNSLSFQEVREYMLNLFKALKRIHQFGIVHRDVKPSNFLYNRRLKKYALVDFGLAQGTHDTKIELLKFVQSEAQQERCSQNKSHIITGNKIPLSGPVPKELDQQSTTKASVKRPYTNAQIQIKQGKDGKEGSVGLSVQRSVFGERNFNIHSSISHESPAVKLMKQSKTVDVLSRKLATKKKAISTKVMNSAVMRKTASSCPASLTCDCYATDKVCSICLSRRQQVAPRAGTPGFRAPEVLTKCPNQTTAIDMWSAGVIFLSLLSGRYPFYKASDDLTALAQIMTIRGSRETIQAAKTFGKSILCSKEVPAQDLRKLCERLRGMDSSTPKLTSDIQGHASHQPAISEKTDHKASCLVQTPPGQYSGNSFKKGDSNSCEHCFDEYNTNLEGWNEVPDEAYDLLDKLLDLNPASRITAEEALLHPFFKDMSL
T1 sequence (Q9UBU7 whole entry partner): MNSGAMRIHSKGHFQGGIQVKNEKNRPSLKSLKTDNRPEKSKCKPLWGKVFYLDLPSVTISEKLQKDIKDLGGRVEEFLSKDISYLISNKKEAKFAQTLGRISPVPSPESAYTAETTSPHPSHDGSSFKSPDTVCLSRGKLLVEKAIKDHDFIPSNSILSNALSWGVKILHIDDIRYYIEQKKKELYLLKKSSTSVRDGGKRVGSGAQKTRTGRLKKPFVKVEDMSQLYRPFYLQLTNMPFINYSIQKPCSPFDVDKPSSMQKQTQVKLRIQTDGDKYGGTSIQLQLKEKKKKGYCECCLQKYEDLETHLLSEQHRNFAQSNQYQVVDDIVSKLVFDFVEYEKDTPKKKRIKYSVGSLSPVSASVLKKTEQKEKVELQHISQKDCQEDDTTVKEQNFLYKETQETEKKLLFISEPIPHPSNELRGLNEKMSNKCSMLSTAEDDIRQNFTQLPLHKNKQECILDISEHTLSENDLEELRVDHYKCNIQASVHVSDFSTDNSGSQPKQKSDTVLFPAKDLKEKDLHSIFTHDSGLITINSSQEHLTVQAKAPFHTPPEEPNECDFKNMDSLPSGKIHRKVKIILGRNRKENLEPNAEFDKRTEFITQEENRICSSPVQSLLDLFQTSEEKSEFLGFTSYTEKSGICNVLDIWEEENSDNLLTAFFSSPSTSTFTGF

Row | Compound | Ki [nM]
1 | COc1cnc2[nH]cc(-c3cc(Cl)nc(NC4CCC(C5CCNCC5)CC4)c3)c2c1 (centres unmarked) [Example 236, 6-chloro-4-(5-methoxy-1H-pyrrolo[2,3-b]pyridin-3-yl)-N-[4-(piperidin-4-yl)cyclohexyl]pyridin-2-amine] | < 10
2 | COc1cnc2[nH]cc(-c3cc(Cl)nc(NC4CCC(CC5CCC(N)CC5)CC4)c3)c2c1 (centres unmarked) [Example 237, N-{4-[(4-aminocyclohexyl)methyl]cyclohexyl}-6-chloro-4-(5-methoxy-1H-pyrrolo[2,3-b]pyridin-3-yl)pyridin-2-amine] | < 10
3 | COc1cnc2[nH]cc(-c3cc(Cl)nc(NC4CCC(CC5CCC(NC(=O)C6CC6)CC5)CC4)c3)c2c1 (centres unmarked) [Example 240, N-[4-[(4-{[6-chloro-4-(5-methoxy-1H-pyrrolo[2,3-b]pyridin-3-yl)pyridin-2-yl]amino}cyclohexyl)methyl]cyclohexyl]cyclopropanecarboxamide] | < 10
4 | C#CCOc1cnc2[nH]cc(-c3cc(Cl)nc(N[C@H]4CC[C@H](N)CC4)c3)c2c1 [Example 241, (trans)-N1-(6-chloro-4-(5-(prop-2-ynyloxy)-1H-pyrrolo[2,3-b]pyridin-3-yl)pyridin-2-yl)cyclohexane-1,4-diamine] | 10 to 100
5 | O=C(NCc1ccccn1)c1cnc2[nH]cc(-c3cc(Cl)nc(NC4CCCCC4)c3)c2c1 [Example 242, 3-[2-chloro-6-(cyclohexylamino)pyridin-4-yl]-N-(pyridin-2-ylmethyl)-1H-pyrrolo[2,3-b]pyridine-5-carboxamide] | < 10
6 | Nc1ccc(-c2cnc3[nH]cc(-c4cc(Cl)nc(NC5CCCCC5)c4)c3c2)cn1 [Example 245, 4-[5-(6-aminopyridin-3-yl)-1H-pyrrolo[2,3-b]pyridin-3-yl]-6-chloro-N-cyclohexylpyridin-2-amine] | < 10
7 | CCNC(=O)Nc1cnc2[nH]cc(-c3cc(Cl)nc(NC4CCCCC4)c3)c2c1 [Example 248, 1-{3-[2-chloro-6-(cyclohexylamino)pyridin-4-yl]-1H-pyrrolo[2,3-b]pyridin-5-yl}-3-ethylurea] | < 10
8 | O=C(N[C@H]1CC[C@H](Nc2cc(-c3c[nH]c4ncccc34)cc(Cl)n2)CC1)C1CN(Cc2ccncc2)C1 [Example 249, N-(trans-4-{[6-chloro-4-(1H-pyrrolo[2,3-b]pyridin-3-yl)pyridin-2-yl]amino}cyclohexyl)-1-(pyridin-4-ylmethyl)azetidine-3-carboxamide] | < 10

Continued, values first:

Row | Ki [nM] | Compound
9 | < 10 | COc1cnc2[nH]cc(-c3cc(Cl)nc(NC4CCC(CC5CCC(NC6CCCCC6)CC5)CC4)c3)c2c1 (centres unmarked) [Example 238, 6-chloro-N-(4-{[4-(cyclohexylamino)cyclohexyl]methyl}cyclohexyl)-4-(5-methoxy-1H-pyrrolo[2,3-b]pyridin-3-yl)pyridin-2-amine]
10 | 10 to 100 | Clc1cc(-c2c[nH]c3ncc(Nc4ccccc4)cc23)cc(NC2CCCCC2)n1 [Example 239, 3-[2-chloro-6-(cyclohexylamino)pyridin-4-yl]-N-phenyl-1H-pyrrolo[2,3-b]pyridin-5-amine]
11 | < 10 | Clc1cc(-c2c[nH]c3ncc(-c4cncnc4)cc23)cc(NC2CCCCC2)n1 [Example 243, 6-chloro-N-cyclohexyl-4-[5-(pyrimidin-5-yl)-1H-pyrrolo[2,3-b]pyridin-3-yl]pyridin-2-amine]
12 | < 10 | CCCCS(=O)(=O)N[C@H]1CC[C@H](Nc2cc(-c3c[nH]c4ncc(OC)cc34)cc(Cl)n2)CC1 [Example 244, N-(trans-4-{[6-chloro-4-(5-methoxy-1H-pyrrolo[2,3-b]pyridin-3-yl)pyridin-2-yl]amino}cyclohexyl)butane-1-sulfonamide]
13 | < 10 | COc1cnc2[nH]cc(-c3cc(Cl)nc(N[C@H]4CC[C@H](NC(=O)CN)CC4)c3)c2c1 [Example 246, N-(trans-4-{[6-chloro-4-(5-methoxy-1H-pyrrolo[2,3-b]pyridin-3-yl)pyridin-2-yl]amino}cyclohexyl)glycinamide]
14 | < 10 | COc1ccnc2[nH]cc(-c3cc(Cl)nc(NC4CCCCC4)c3)c12 [Example 247, 6-chloro-N-cyclohexyl-4-(4-methoxy-1H-pyrrolo[2,3-b]pyridin-3-yl)pyridin-2-amine]
